How the values were obtained:
[1] = tested on: posterior foregut spheroids; assay: Gastric specification of posterior foregut spheroids into fundic hGOs (qPCR/staining); assay type: cell-based, human
Description: Posterior foregut spheroids were collected and transferred to a three-dimensional culture system as previously described^36. Briefly, spheroids were suspended in 50 μl Matrigel (BD Biosciences) and plated as a droplet into 24-well plates. The matrigel was allowed to solidify for 10 minutes in the tissue culture incubator, then overlayed with basic gut media (BGM) containing growth factors and/or small molecule agonsists. BGM consisted of Advanced DMEM/F12 media (Gibco) supplemented with N2 (1×; Invitrogen), B27 (1×; Invitrogen), HEPES ([…]; Gibco), L-glutamine, penicillin/streptomycin, and EGF (100 ng/ml; R&D Systems). During days 6-9, spheroids were cultured with RA and noggin to specify the antral lineage. For fundic specification, CHIR was added during this stage. Antral hGOs were subsequently cultured in BGM with only EGF. Fundic hGOs were continuously exposed to CHIR from day 6-30. […] On day 20, organoids were collected and re-plated at a dilution of 1:10-1:20.
(§1) Total RNA was isolated using Nucleospin RNA II kit (Machery Nagel) and converted to cDNA as previously described7. qPCR was performed on Quantstudio 6 (Applied Biosystems) using Quantitect SYBR-Green master mix (Qiagen), and primer sequences are listed below.

hFGOs [2] = assay: Screen for factors that increase parietal cell differentiation in hFGOs (qPCR at day 34); assay type: cell-based, human; conditions: for parietal cell gene expression (ATP4A and ATP4B): day 30 hFGOs exposed two days, analysed at day 34
Description: For screening experiments to identify factors that increase parietal cell differentiation, hFGOs were grown to day 30, then exposed for two days to individual signaling pathway agonists and antagonists: DAPT (1 μM; Stemgent), SB431542 (10 μM; Stemgent), BMP4 (50 ng/ml; R&D Systems), PD0325901 (2 μM; Stemgent), Gastrin (10 nM; Sigma Aldrich), Dexamethasone (50 nM; Sigma Aldrich), and Wnt5a (50 ng/ml; R&D Systems). Following treatment, hFGOs were grown for two more days to day 34, then analyzed by qPCR.
as §1

hFGOs [3] = assay: Acid secretion assay, luminal pH by SNARF-5F in fundic hGOs; assay type: cell-based, human
Description: Acid secretion assays were performed as previously described (Schumacher et al., 2015). hGOs were grown in the chambered coverglass (Thermo Scientific) and the chamber was placed on an inverted confocal microscope (Zeiss LSM 710), and experiments were performed under 5% CO2 and 37° C. conditions (incubation chamber, PeCon, Erbach, Germany).
(§2) Freshly isolated mouse gastric fundic glands or cultured hGO were incubated with acridine orange (10 μM), then acridine orange fluorescence was excited at 458 nm or 488 nm and images were collected at 600-650 nm (Red) or 500-550 nm (Green), respectively. On the other hand, to monitor hGOs luminal pH, the ratiometric pH sensitive dye, 5-(and-6)-carboxy SNARF-5F (5 mM stock: EX 560 nm, EM 565-605 (Green) and 620-680 (Red) nm: Invitrogen) was microinjected (46-92 nl) into the lumen and monitored. Fluorescent dye also added into medium. Histamine (100 μM; Sigma) was added to media, while famotidine (100 μM; Sigma) or omeprazole (100 μM; Sigma) were pre-incubated at least 30 min before histamine. Images were analyzed using MetaMorph software (Molecular Devices, Downingtown, Pa.). Background corrected 620-680/565-605 nm ratio values were converted to pH using a standard curve.

hAGOs = conditions: histamine 100 μM
Description: as §2, with “Acid secretion assays were performed as previously described (Schumacher et al., 2015). hGOs were grown in the chambered coverglass (Thermo Scientific) and the chamber was placed on an inverted confocal microscope (Zeiss LSM 710), and experiments were performed under 5% CO2 and 37° C. conditions (incubation chamber, PeCon, Erbach, Germany). Freshly” for “Freshly”, “Histamine (100 μM;” left out

hFGOs [4] = conditions: histamine, hFGO glands
Description: as §2, with “Acid secretion assays were performed as previously described (Schumacher et al., 2015). hGOs were grown in the chambered coverglass (Thermo Scientific) and the chamber was placed on an inverted confocal microscope (Zeiss LSM 710), and experiments were performed under 5% CO2 and 37° C. conditions (incubation chamber, PeCon, Erbach, Germany). Freshly” for “Freshly”, “Histamine (100 μM;” left out

[5] = tested on: isolated mouse gastric glands; conditions: histamine, after 60 minutes
Description: as §2, with “Acid secretion assays were performed as previously described (Schumacher et al., 2015). hGOs were grown in the chambered coverglass (Thermo Scientific) and the chamber was placed on an inverted confocal microscope (Zeiss LSM 710), and experiments were performed under 5% CO2 and 37° C. conditions (incubation chamber, PeCon, Erbach, Germany). Freshly” for “Freshly”, “Histamine (100 μM;” left out

[6] = CHIR for three days (days 6-9), analysed at day 9

Molecule: Cc1c[nH]c(-c2cnc(NCCNc3ccc(C#N)cn3)nc2-c2ccc(Cl)cc2Cl)n1 [CHIR99021]
- PDX1 expression [1, 6]: nearly complete repression
- SOX2 and GATA4 levels [1, 6]: unaffected
- expression of IRX2, IRX3, and IRX5 [1, 6]: significantly increased expression
- intestinal markers CDX2, MUC2, CCK, or SCT ([1]; CHIR-treated hGOs): did not exhibit a significant increase
- fundic gene expression ([1]; continued CHIR treatment through at least day 29): stable induction of fundic gene expression
- specification of fundic identity ([1]; three-day pulse of CHIR from days 6-9, later stages): not sufficient to irreversibly specify a fundic identity

Molecule: O=C(NOC[C@H](O)CO)c1ccc(F)c(F)c1Nc1ccc(I)cc1F [PD0325901]
- parietal cell gene expression (ATP4A and ATP4B) (hFGOs [2]): substantial up-regulation

Molecule: NC(N)=Nc1nc(CSCCC(N)=NS(N)(=O)=O)cs1 [famotidine]
- histamine-induced decrease in luminal pH (acidification) (hFGOs [3]; 100 μM, pre-incubated at least 30 min before histamine 100 μM): blocked

Molecule: NCCc1c[nH]cn1 [histamine]
- luminal pH response (hAGOs): no response
- acridine orange (AO) accumulation (hFGOs [4]): AO accumulated in acidified cellular vesicles
- acridine orange (AO) accumulation [5]: induced acridine orange (AO) dye accumulation in a canalicular-type pattern
- luminal pH response (hFGOs [3]; histamine 100 μM): swift and marked decrease in luminal pH

B1: FGF10: growth factor (R&D Systems) added to fundic hGOs day 20-30 (protein, UniProt O15520 38-208, looked up)
Fibroblast growth factor 10: QALGQDMVSPEATNSSSSSFSSPSSAGRHVRSYNHLQGDVRWRKLFSFTKYFLKIEKNGKVSGTKKENCPYSILEITSVEIGVVAVKAINSNYYLAMNKKGKLYGSKEFNNDCKLKERIEENGYNTYASFNWQHNGRQMYVALNGKGAPRRGQKTRRKNTSAHFLPMVVHS
- glandular morphogenesis driven by CHIR ([1]; FGF10 50 ng/ml, day 20-30, data not shown): enhance the glandular morphogenesis

B2: BMP4: growth factor, BMP signalling activator (R&D Systems) (protein, UniProt P12644 293-408, looked up)
Bone morphogenetic protein 4: SPKHHSQRARKKNKNCRRHSLYVDFSDVGWNDWIVAPPGYQAFYCHGDCPFPLADHLNSTNHAIVQTLVNSVNSSIPKACCVPTELSAISMLYLDEYDKVVLKNYQEMVVEGCGCR
- effect of PD03 on parietal cell gene expression (hFGOs [2]; BMP4 added to PD03, data not shown): could enhance the effect of PD03
- parietal cell gene expression (ATP4A and ATP4B) (hFGOs [2]): did not affect PC gene expression
- CDX2 expression ([1]; Noggin replaced with BMP4, with Wnt/β-catenin activation (CHIR)): robust expression of the intestinal transcription factor

Reference: patent US11066650B2, “Methods for the in vitro manufacture of gastric fundus tissue and compositions related to same” (Children's Hospital Medical Center, priority 2016, dated 2021)
